{"source": "BindingDB's records for doi:10.1021/jm070133w", "about": "(Nci-Fcrdc, 2007)", "target": "T1, Glutamate carboxypeptidase 2 [44-750] (Homo sapiens, UniProt Q04609)", "T1 construct": "44-750", "T1 sequence (Q04609 44-750)": "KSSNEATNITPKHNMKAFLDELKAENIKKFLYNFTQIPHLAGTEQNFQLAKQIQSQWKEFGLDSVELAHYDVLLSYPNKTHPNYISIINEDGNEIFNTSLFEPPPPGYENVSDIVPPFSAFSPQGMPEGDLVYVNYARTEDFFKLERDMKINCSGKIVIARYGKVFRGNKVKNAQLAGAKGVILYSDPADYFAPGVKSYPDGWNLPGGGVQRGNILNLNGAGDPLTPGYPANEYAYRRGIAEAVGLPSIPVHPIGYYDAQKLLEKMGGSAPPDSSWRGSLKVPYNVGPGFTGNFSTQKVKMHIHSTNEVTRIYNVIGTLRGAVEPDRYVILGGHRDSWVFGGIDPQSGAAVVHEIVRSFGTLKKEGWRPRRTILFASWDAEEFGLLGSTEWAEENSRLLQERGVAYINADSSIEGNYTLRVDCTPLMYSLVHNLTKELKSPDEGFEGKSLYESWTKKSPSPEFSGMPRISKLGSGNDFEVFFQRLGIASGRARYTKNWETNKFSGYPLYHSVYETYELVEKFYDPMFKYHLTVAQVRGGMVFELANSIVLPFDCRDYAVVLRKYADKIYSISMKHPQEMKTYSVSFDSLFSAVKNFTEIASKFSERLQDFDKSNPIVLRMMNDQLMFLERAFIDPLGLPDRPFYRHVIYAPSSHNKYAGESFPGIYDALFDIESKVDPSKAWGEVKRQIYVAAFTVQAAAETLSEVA", "assay": "Determination of Inhibition Concentration Values (IC50)", "conditions": "pH 7.4; 37 °C", "protocol": "The inhibition concentration values of GCPII were determined using the radioenzymatic assay with [3H] NAAG (radiolabeled on the terminal glutamate). The enzyme was preincubated in the presence of increasing concentrations of inhibitors in reaction buffer. The reaction was initiated by adding the substrate to the reaction mixtures. After 20 min, the reaction was terminated, and the glutamate was separated from the reaction mixture by ion-exchange chromatography and quantified by liquid scintillation. Duplicate reactions were carried out for each experimental point. The IC50 values were calculated from plots of Vi/V0 (ratio of individual reaction rates to the rate of an uninhibited reaction) versus inhibitor concentration using the GraFit program (version 5.0.4, Erithacus Software Limited)."}
{"smiles": "Cc1onc(O)c1C[C@H](N)C(=O)O", "values": [{"measurement": "IC50", "result": "> 10", "unit": "mM"}]}
